The values that follow come from paper PMC5438368, “Characterization of TRPA channels in the starfish Patiria pectinifera: involvement of thermally activated TRPA1 in thermotaxis in marine planktonic larvae” (Scientific Reports, 2017).

Assay [1] concerns the target T1, PpTRPA1 (Patiria pectinifera, UniProt A0A1Y1C7R6).
T1 construct: cRNA in Xenopus laevis oocytes; no tag told; PCR primers imply N-terminus MEGDE and C-terminus EHDGSNTA
T1 sequence (A0A1Y1C7R6 1-1200): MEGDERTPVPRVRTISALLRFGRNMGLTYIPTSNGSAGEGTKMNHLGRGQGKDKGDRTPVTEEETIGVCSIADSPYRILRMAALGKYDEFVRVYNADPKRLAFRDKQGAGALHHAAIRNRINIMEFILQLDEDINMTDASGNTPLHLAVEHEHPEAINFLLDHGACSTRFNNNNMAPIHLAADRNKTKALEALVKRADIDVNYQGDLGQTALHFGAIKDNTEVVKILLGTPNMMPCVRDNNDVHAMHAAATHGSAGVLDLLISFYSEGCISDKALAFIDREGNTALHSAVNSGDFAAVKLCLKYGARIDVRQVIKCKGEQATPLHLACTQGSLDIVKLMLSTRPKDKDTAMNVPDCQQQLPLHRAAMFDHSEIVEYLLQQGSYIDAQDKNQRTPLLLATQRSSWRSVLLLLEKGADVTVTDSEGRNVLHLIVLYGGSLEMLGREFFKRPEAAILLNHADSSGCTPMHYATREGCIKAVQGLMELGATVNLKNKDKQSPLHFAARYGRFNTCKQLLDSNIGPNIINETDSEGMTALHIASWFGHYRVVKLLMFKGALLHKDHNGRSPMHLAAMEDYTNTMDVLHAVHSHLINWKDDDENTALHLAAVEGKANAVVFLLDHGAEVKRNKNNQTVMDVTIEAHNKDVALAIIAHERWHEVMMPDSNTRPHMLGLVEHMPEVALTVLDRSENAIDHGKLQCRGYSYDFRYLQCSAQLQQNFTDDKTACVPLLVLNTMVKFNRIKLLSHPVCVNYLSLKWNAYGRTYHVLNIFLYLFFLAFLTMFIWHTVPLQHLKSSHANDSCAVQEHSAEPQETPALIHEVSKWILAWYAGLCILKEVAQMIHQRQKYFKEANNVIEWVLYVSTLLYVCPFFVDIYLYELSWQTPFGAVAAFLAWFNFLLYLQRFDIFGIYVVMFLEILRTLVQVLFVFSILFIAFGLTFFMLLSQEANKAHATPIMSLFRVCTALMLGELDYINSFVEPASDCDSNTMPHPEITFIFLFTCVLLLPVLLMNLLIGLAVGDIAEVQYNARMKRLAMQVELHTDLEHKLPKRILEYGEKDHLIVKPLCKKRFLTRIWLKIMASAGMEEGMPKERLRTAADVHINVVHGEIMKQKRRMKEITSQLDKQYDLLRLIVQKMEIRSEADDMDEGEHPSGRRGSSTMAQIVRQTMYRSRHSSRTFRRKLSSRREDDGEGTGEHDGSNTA
As to the kind of experiment: two-electrode voltage clamp, Xenopus laevis oocytes. The class given is cell-based. In general terms: In two-electrode clamp one electrode senses voltage and the other passes current.

Assay [2] concerns the target T1, PpTRPA1. The assay is described as above. The class given is cell-based. Particulars: agonist; ND96 bath, pH 7.4; -60 mV; n = 3; cinnamaldehyde concentration not in text.

In general, EC50 refers to the concentration giving half of the maximal effect. High values mean lower potency in that assay, low ones higher potency in that assay. As to `C=CCN=C=S` [AITC, allyl isothiocyanate], at PpTRPA1 [1], the EC50 was found to be 117 µM.
For `O=CC=Cc1ccccc1` [CA, cinnamaldehyde], the “two-electrode voltage clamp, Xenopus laevis oocytes” value at PpTRPA1 [2] was “Cinnamaldehyde (CA), another TRPA1 agonist, also evoked inward currents in X. laevis oocytes expressing PpTRPA1”.
